From patent US20100190832A1, “Mechanism-based inhibitors of transthyretin amyloidosis: studies with biphenyl ethers and structural templates” (NATIONAL INSTITUTE OF IMMUNOLOGY., priority 2008, published 2010)
Where two headings read alike, the source gives them in different places.

Target: T1, WT-TTR (Homo sapiens, UniProt P02766)
T1 construct: made in house
Test: Stagnant acid-mediated TTR aggregation (fibril formation) assay, turbidity at 340 nm
Type: biochemical
Details: for remaining activity at 100 µM / remaining activity at 50 µM: 72 h; for remaining activity at 50 µM: read-out: % FF at 50 μM; for IC50: Table 3, WT-TTR 7.2 μM, read-out: IC50
Experimental: Stagnant Acid-Mediated TTR Aggregation Assay.
After 1 h, the samples were diluted with 0.5 ml of 200 mM sodium acetate buffer containing 100 mM KCl and 1 mM EDTA. Samples after mild vortexing were incubated at 37° C. for the desired amount of time without stirring to evaluate the efficacy of the inhibitors. The extent of aggregation was probed by turbidity measurements at 340 nm using Tecan GENios microplate reader. […] The extent of TTR fibril formation in the absence of inhibitor was defined to be 100%. […] All experiments were done in triplicate. […] The IC50 was determined by plotting mean of % inhibition vs log and fitted to sigmoid equation:
The experiments were conducted at 25° C. After 1 h, the samples were diluted with 0.5 mL of 200 mM sodium acetate buffer pH 4.4 containing 100 mM KCl and 1 mM EDTA, vortexed, and incubated at 37° C. for 72 h. […] The stoichiometry of the binding of the inhibitors was determined by HPLC as described by Green et al., N. S. Palaninathan, S, L, Sacchettini, J. e. […] Dissociation constant of binding of these compounds to TTR was determined by fluorescence titration, and data were fitted into the Adair equation for two bind mg.

[1] = pH 4.4, compound 100 μM, WT-TTR 7.2 μM, pH 4.4, 37° C., read-out: % FF
[2] = pH 4.4, compound 100 μM, WT-TTR 7.2 μM, pH 4.4, 37° C., read-out: % Inhibition
[3] = biphenyl ether 50 μM, WT-TTR 7.2 μM

remaining activity at 100 µM [1] [%]	inhibition at 100 µM [2] [%]	Compound	other results
–	–	O=C(O)CCCCCN1C(=O)/C(=C/c2c[nH]c3ccccc23)SC1=S [Compound 2279-3516]	remaining activity at 100 µM (pH 4.4, read-out: % FF): 126%; inhibition at 100 µM (pH 4.4): 0%
13.8	86.2	Oc1ccccc1-c1nnc(S)o1 [Compound 0350-0160]	–
14.3	85.7	Cc1ccc(C2NC(C(=O)O)CS2)cc1 (stereo not drawn) [Compound K085-0026]	–
128	0	CCCCC1NC(C(=O)O)CS1 (stereo not drawn) [Compound K085-0025]	–
89.5	10.4	O=C(Nc1c2c(nn1-c1cccc(Cl)c1)C[S+]([O-])C2)c1ccccc1F (stereo not drawn) [Compound C077-0215]	–
32.1	67.9	O=C(O)CCc1nc(-c2cccs2)no1 [Compound C066-2523]	–
104	0	COc1ccccc1NC(=S)N(CCCN1CCCCCC1)Cc1cccs1 [Compound C087-0823]	–
–	0	CCOc1cccc2c1OC(c1cccc(Cl)c1)N1N=C(c3cccs3)CC21 (stereo not drawn) [Compound K805-0132]	–
87.8	12.2	CCOC(=O)c1c(N)sc(C(=O)Nc2cc(C)cc(C)c2)c1C [Compound R052-1596]	–
96	4.06	Oc1ccc(Nc2nc(-c3ccc(Cl)cc3)nc3ccccc23)cc1 [Compound 5847-1646]	–
120	0	O=C(O)C1CSC(c2ccc(O)cc2)N1 (stereo not drawn) [Compound K085-0008]	–
116	0	COc1cc(C2NC(C(=O)O)CS2)ccc1O (stereo not drawn) [Compound K085-0027]	–
99.3	0.7	Fc1ccccc1NC(=S)N(CCCN1CCOCC1)Cc1cccnc1 [Compound C087-1168]	–
136	0	O=C1OC(c2ccc(Cl)cc2Cl)=N/C1=C\c1cccs1 [Compound K075-5819]	–
8.2	91.8	O=[N+]([O-])c1ccc(Cl)cc1Sc1nc2ccccc2s1 [Compound 2369-0691]	–
230	0	COc1cc(/C=C2\SC(=S)N(c3ccc(O)cc3)C2=O)ccc1O [Compound 2189-0711]	–
156	0	O=C(c1cc(-c2ccc(Cl)s2)nc2ccccc12)N1CCOCC1 [Compound C136-0215]	–
10.4	9.71	CCc1ccc(Oc2cc(F)nc(N)n2)cc1 [Compound 1544-0079]	–
164	0	CCOC(=O)c1sc(=S)n(-c2ccc(Br)cc2)c1N [Compound R052-0946]	–
138	0	Clc1ccc2nc(-c3ccc(Cl)s3)c(NC3CCCCC3)n2c1 [Compound C273-0206]	–

remaining activity at 100 µM [1] [%]	inhibition at 100 µM [2] [%]	Compound	other results
54.4	45.6	Nc1nc(F)cc(Oc2ccccc2F)n1 [Compound 1544-0078]	–
98.6	1.4	COc1ccc(NC(=S)N(CCCN2CCOCC2)Cc2cccnc2)cc1 [Compound C087-0811]	–
131	0	NN1C(=O)/C(=C\c2ccc(Cl)cc2)NC1=S [Compound C249-0056]	–
129	0	COc1ccc(C2NC(C(=O)O)CS2)cc1OC (stereo not drawn) [Compound K085-0007]	–
340	0	O=C1/C(=C\c2ccco2)SC(=S)N1c1cccc(F)c1 [Compound 2027-0159]	–
119	0	O=C(O)C1CSC(c2ccc([N+](=O)[O-])cc2)N1 (stereo not drawn) [Compound K085-0004]	–
449	0	O=C(O)c1cccc(-c2ccc(/C=C3\SC(=S)N(c4cccc(C(F)(F)F)c4)C3=O)o2)c1 [Compound 2027-0438]	–
75.7	24.3	CCCCN1CCc2nc3c(ccc4ccccc43)c(O)c2C1 [Compound 3453-1352]	–
107	0	O=C1/C(=C\c2ccc(-c3ccc(Cl)cc3)o2)SC(=S)N1c1cccc(Cl)c1 [Compound 1934-0113]	–
281	0	COc1ccc(/C=C2\SC(=S)N(c3ccc(O)cc3)C2=O)cc1 [Compound 2189-0710]	–
–	–	COc1cc(C=O)ccc1Oc1ccc([N+](=O)[O-])cc1[N+](=O)[O-] [Compound 16]	remaining activity at 50 µM [3]: 66%
58.1	41.9	CCOC(=O)c1c(N)sc(C(=O)NC2CCCCC2)c1C [Compound R052-1597]	–
138	0	O=C1OC(c2ccc(Cl)cc2Cl)=N/C1=C/c1ccc(Cl)c(Cl)c1 [Compound K088-1297]	–
122	0	O=C(CSc1nccn1-c1cccc(Cl)c1)Nc1cccc2ccccc12 [Compound C262-0464]	–
0	100	Clc1ccccc1C1CC(c2cccs2)Nc2nnnn21 (stereo not drawn) [Compound K832-3346]	–
41.8	58.2	O=C(NC1CC1)c1cc(Sc2cccc(Cl)c2)nc2ccccc12 [Compound K784-7224]	–
–	–	COc1cc(C(=O)O)ccc1Oc1ccc([N+](=O)[O-])cc1[N+](=O)[O-] [Compound 21]	remaining activity at 50 µM: 48%; IC50: 20 µM
–	0	O=C(c1cnc(Nc2ccc(F)cc2)c2ccccc12)n1ccnc1 [Compound C066-1627]	–
–	–	O=Cc1ccc(Oc2ccc([N+](=O)[O-])cc2[N+](=O)[O-])c(O)c1 [Compound 17]	remaining activity at 50 µM: 40.5%; IC50: 55 µM
71	29.1	O=c1/c(=C\c2ccccc2Cl)sc2nc3ccccc3n12 [Compound 3062-0592]	–

remaining activity at 100 µM [1] [%]	inhibition at 100 µM [2] [%]	Compound	other results
86.7	13.3	FC(F)(F)c1cccc(NC(=S)N(CCCN2CCCCC2)Cc2cccs2)c1 [Compound C087-1176]	–
146	0	CCOC(=O)c1sc(=S)n(-c2cccc3ccccc23)c1N [Compound R052-0949]	–
309	0	O=C1/C(=C\c2cccc(O)c2)SC(=S)N1c1ccc(F)cc1 [Compound 3232-1704]	–
–	–	COc1cc(CO)ccc1Oc1ccccc1 [Compound 3]	remaining activity at 50 µM: 61.2%
162	0	Cc1ccn2c(Nc3ccc(F)cc3)c(-c3ccccn3)nc2c1 [Compound C273-0218]	–
–	–	COc1cc(CO)ccc1Oc1ccc([N+](=O)[O-])cc1 [Compound 15]	remaining activity at 50 µM [3]: 89.5%
39.2	60.8	NC(=O)CSc1ncc(-c2ccc(Cl)cc2)[nH]1 [Compound C290-0041]	–
46.9	53.1	Cc1nc2c(C(=O)NCc3ccc(F)cc3)cnn2c(O)c1Cc1ccccc1F [Compound C218-0299]	–
41.9	58.1	CCC(=O)NC(c1ccc2c(c1)OCO2)c1cc(Cl)c2cccnc2c1O (stereo not drawn) [Compound K839-0017]	–
34.7	65.3	COc1cccc(C(=O)NC(c2ccccc2)c2cc(Cl)c3cccnc3c2O)c1 (stereo not drawn) [Compound K839-0116]	–
19.2	80.8	Oc1ccc(-c2nnc(S)o2)cc1 [Compound 0350-0159]	–
-2.03	102	O=c1c2ccccc2nc2sc(Nc3ccc(F)cc3F)nn12 [Compound K284-2958]	–
306	0	Cc1ccccc1Nc1c(-c2ccc(Cl)s2)nc2ccc(Cl)cn12 [Compound C273-0244]	–
84.5	15.6	COC(=O)c1sc(=S)n(-c2ccc(Cl)c(Cl)c2)c1N [Compound K286-4369]	–
60.7	39.3	O=C(NCc1ccco1)c1cc(Sc2cccc(Cl)c2)nc2ccccc12 [Compound K784-7215]	–
286	0	O=C1NC(=S)S/C1=C\c1ccc(-c2cc(Cl)ccc2Cl)o1 [Compound 3062-0073]	–
–	–	COc1cc(CO)ccc1Oc1ccc([N+](=O)[O-])cc1[N+](=O)[O-] [Compound 19]	remaining activity at 50 µM: 28%; IC50: 20 µM
–	–	COc1cc(COC(C)=O)ccc1Oc1ccc([N+](=O)[O-])cc1[N+](=O)[O-] [Compound 20]	remaining activity at 50 µM [3]: 69%
155	0	Cn1c(=O)c2c(nc(Oc3ccc(-n4cnnn4)cc3)n2C)n(C)c1=O [Compound 3615-0252]	–

Compound	remaining activity at 100 µM [1] [%]	inhibition at 100 µM [2] [%]	other results
O=C(O)C1CSC(c2cccnc2)N1 (stereo not drawn) [Compound K085-0021]	144	0	–
